Measured values taken from ChEMBL document CHEMBL1132856, “Antitumour activity of sphingoid base adducts of phenethyl isothiocyanate” (2000).

Assays:
Leukemia 60 cell line [1] = test: Median growth inhibitory concentration of compound tested in vitro against human leukemia 60 cells; assay type: functional
Leukemia 60 cell line [2] = test: Median toxic concentration of compound tested in vitro against human leukemia 60 cells; assay type: functional; details: read-out: TC50 (the source's name)

SMILES	GC50 (Leukemia 60 cell line [1]) [µM]	CC50 (Leukemia 60 cell line [2]) [µM]
CCCCCCCCCCCCCCCC(O)C(CO)/N=C(\S)NCCc1ccccc1 (stereo not given)	1.6	2.37
CCCCCCCCCCCCC/C=C\C(O)C(CO)/N=C(\S)NCCc1ccccc1 (stereo not given)	0.64	2.53
CCCCCCCCCCCCCCC[C@@H](O)[C@@H](N)CO [DIHYDROSPINGOSINE]	0.49	2.55
S=C=NCCc1ccccc1 [PHENETHYLISOTHIOCYANATE]	0.84	1.37
CCCCCCCCCCCCCC=C[C@@H](O)[C@@H](N)CO [SPHINGOSINE]	1.24	2.42
